Experimental data from ChEMBL document CHEMBL5029198, “Water-Soluble Nystatin and Derivative” (ACS Med Chem Lett, 2022).
≈ marks a conversion by molar mass, not a printed value. Where a SMILES comes first, the peptide text is derived from it. Bridges are numbered along the chain shown (N, C = ends). [ ]: non-standard residue; d: D form. The star is where a group is joined. X1 = CC[C@H](C)CCCCC(=O)*; Dab = NCC[C@H](N)C(=O)O

Tests used:
[1] = Protein binding in human plasma assessed as free fraction at 0.25 mg/ml measured after 48 hrs by RP-HPLC analysis relative to control; type: ADME, cell-free
Aspergillus niger = assay: Antifungal activity against Aspergillus niger ATCC 20057 assessed as reduction in fungal growth incubated overnight by broth dilution method; type: functional
[2] = Protein binding in human plasma assessed as unbound fraction at 0.25 mg/ml measured after 24 hrs by RP-HPLC analysis (Rvb= 0.147 mg/ml); type: ADME, cell-free
[3] = Protein binding in human plasma assessed as unbound fraction at 0.5 mg/ml measured after 24 hrs by RP-HPLC analysis (Rvb= 0.211 mg/ml); type: ADME, cell-free
[4] = Stability of compound in human plasma assessed as retention time at 0.5 mg/ml measured after 48 hrs by HPLC analysis; type: ADME, cell-free
[5] = Protein binding in human plasma assessed as free fraction at 0.1 mg/ml measured after 48 hrs by RP-HPLC analysis relative to control; type: ADME, cell-free
[6] = Cytotoxicity against human HEp-2 cells assessed as reduction in cell viability incubated for 40 to 60 mins by resazurin dye based assay; details: time 40-60 min
[7] = Protein binding in human plasma assessed as free fraction at 0.5 mg/ml measured after 48 hrs by RP-HPLC analysis relative to control; type: ADME, cell-free
[8] = Hemolytic activity in human RBC at 0.25 mg/ml measured after 1 hr; type: ADME, tissue-based; details: erythrocyte
[9] = Aqueous solubility of compound at up to 100 mg/ml; type: physicochemical; details: buffer
[10] = Protein binding in human plasma assessed as unbound fraction at 0.25 mg/ml measured after 48 hrs by RP-HPLC analysis (Rvb= 0.147 mg/ml); type: ADME, cell-free
[11] = Hemolytic activity in human RBC at 0.5 mg/ml measured after 1 hr relative to control; type: ADME, tissue-based, Erythrocyte; details: red blood cells, read-out: Activity
[12] = Protein binding in human plasma assessed as unbound fraction at 0.05 mg/ml measured after 24 hrs by RP-HPLC analysis (Rvb= 0.014 mg/ml); type: ADME, cell-free
Candida albicans = assay: Antifungal activity against Candida albicans ATCC 10231 assessed as reduction in fungal growth incubated overnight by broth dilution method; type: functional
[13] = Protein binding in human plasma assessed as unbound fraction at 0.1 mg/ml measured after 48 hrs by RP-HPLC analysis (Rvb= 0.069 mg/ml); type: ADME, cell-free
[14] = Protein binding in human plasma at 0.5 mg/ml measured after 24 hrs by RP-HPLC analysis relative to control; type: ADME, cell-free; details: read-out: PPB (converted)
[15] = Protein binding in human plasma at 0.25 mg/ml measured after 24 hrs by RP-HPLC analysis relative to control; type: ADME, cell-free; details: read-out: PPB (converted)
[16] = Protein binding in human plasma assessed as unbound fraction at 0.5 mg/ml measured after 48 hrs by RP-HPLC analysis (Rvb= 0.211 mg/ml); type: ADME, cell-free
[17] = Protein binding in human plasma assessed as unbound fraction at 0.1 mg/ml measured after 24 hrs by RP-HPLC analysis (Rvb= 0.069 mg/ml); type: ADME, cell-free
[18] = Stability of compound in human plasma assessed as retention time at 0.5 mg/ml measured after 6 hrs by HPLC analysis; type: ADME, cell-free

## CC(=O)O.C[C@@H]1[C@H](O)[C@@H](C)/C=C/C=C/CC/C=C/C=C/C=C/C=C/[C@H](O[C@@H]2O[C@H](C)[C@@H](O)[C@H](N)[C@@H]2O)C[C@@H]2O[C@](O)(C[C@@H](O)[C@H](O)CC[C@@H](O)C[C@@H](O)C[C@@H](O)CC(=O)O[C@H]1C)C[C@H](O)[C@H]2C(=O)NCCO
[1]
  fraction unbound at 48 h, 0.25 mg/ml: 0.4
Aspergillus niger
  MIC: 23.6 µg/mL
[2]
  Cp(f): 120 µg/mL
[3]
  Cp(f): 168 µg/mL
[4]
  Retention_time: 6.5 min
[5]
  fraction unbound at 48 h, 0.1 mg/ml: 0.3
[6]
  CC50: 149 µg/mL
[7]
  fraction unbound at 48 h, 0.5 mg/ml: 0.274
[8]
  Activity: Non-Toxic
[9]
  solubility: Soluble
[10]
  Cp(f): 100 µg/mL
[11]
  hemolysis at 1 h, 0.5 mg/ml: 62%
[12]
  Cp(f): 13 µg/mL
Candida albicans
  MIC: 5 µg/mL
[13]
  Cp(f): 30 µg/mL
[14]
  fraction unbound at 24 h, 0.5 mg/ml: 0.34
[15]
  fraction unbound at 24 h, 0.25 mg/ml: 0.48
[16]
  Cp(f): 137 µg/mL
[17]
  Cp(f): 42 µg/mL
[18]
  Retention_time: 9.4 min

## NYSTATIN [listing 1 of 2 here]
Aspergillus niger
  MIC: 22.5 µg/mL
Candida albicans
  MIC: 10 µg/mL

## C[C@@H]1[C@H](O)[C@@H](C)/C=C/C=C/C=C/C=C/C=C/C=C/C=C/[C@H](O[C@@H]2O[C@H](C)[C@@H](O)[C@H](N)[C@@H]2O)C[C@@H]2O[C@](O)(C[C@@H](O)C[C@@H](O)[C@H](O)CC[C@@H](O)C[C@@H](O)CC(=O)O[C@H]1C)C[C@H](O)[C@H]2C(=O)O [AMPHOTERICIN B]
Aspergillus niger
  MIC: 31.5 µg/mL (≈ 34.1 µM)
[6]
  CC50: 87 µg/mL (≈ 94.1 µM)
Candida albicans
  MIC: 5 µg/mL (≈ 5.41 µM)

## CC[C@H](C)CCCCC(=O)N[C@@H](CCN)C(=O)N[C@H](C(=O)N[C@@H](CCN)C(=O)N[C@H]1CCNC(=O)[C@H]([C@@H](C)O)NC(=O)[C@H](CCN)NC(=O)[C@H](CCN)NC(=O)[C@H](CC(C)C)NC(=O)[C@@H](Cc2ccccc2)NC(=O)[C@H](CCN)NC1=O)[C@@H](C)O (X1-[Dab]T[Dab][Dab][Dab][dF]L[Dab][Dab]T; lactam 4-C)
Aspergillus niger
  MIC: > 35 µg/mL
Candida albicans
  MIC: > 35 µg/mL

## CC(=O)O.COC(=O)[C@H]1[C@@H]2C[C@@H](O[C@@H]3O[C@H](C)[C@@H](O)[C@H](N)[C@@H]3O)/C=C/C=C/C=C/C=C/CC/C=C/C=C/[C@H](C)[C@@H](O)[C@@H](C)[C@H](C)OC(=O)C[C@H](O)C[C@H](O)C[C@H](O)CC[C@@H](O)[C@H](O)C[C@](O)(C[C@@H]1O)O2
Aspergillus niger
  MIC: > 35 µg/mL
Candida albicans
  MIC: 30 µg/mL

## NYSTATIN [listing 2 of 2 here]
[8]
  Activity: Toxic

## Clc1ccc(COC(Cn2ccnc2)c2ccc(Cl)cc2Cl)cc1 (configuration not stated) [ECONAZOLE]
Aspergillus niger
  MIC: > 35 µg/mL
Candida albicans
  MIC: > 35 µg/mL
